Assay results from US20240342167A1, “INHIBITORS OF PORCINE REPRODUCTIVE AND RESPIRATORY SYNDROME VIRUS” (University of Connecticut, priority 2023, published 2024).
Entries after “also recorded” stand apart in the source; their conditions may differ.

Tests used:
[1] = molecular target: T1, PPI between PRRSV glycoprotein GP2a and CD163-SRCR5 (Sus scrofa, UniProt Q2VL90); experiment: BiFC assay GP2a/SRCR5; type: cell-based, porcine CD163; PRRSV VR2332; conditions: for Average GP2a (relative fluorescence intensity, SRCR5/GP2a BiFC): 5 μM, HEK293T, 24 h after transfection, relative to NC (DMSO) = 1.00, n=3
T1 construct: SRCR5 domain of porcine CD163 receptor was amplified from cDNA of pig cells; expressed in transfected cells; host or cells: HEK293T
Experimental: (§1) HEK293T cells were cultivated in 6-well plates in FP medium and transfected with 1 μg XpBiFC-VN155 (I152L)-SRCR5 and 1 μg pBiFC-VC155-GP2/GP4 using Fugene6. After 4 h, cells were digested with 0.05% Typsin-EDTA (ThermoFisher Scientific, MA, USA)) and passaged to 48-well plates which were coated with EmbryoMax 0.1% Gelatin Solution (Sigma-Aldrich, MO, USA) and preloaded with 5 μM B7 analogues. Fluorescence images were taken at 24 h after transfection and fluorescence intensity was measured by image J.

[2] = molecular target: T2, PPI between PRRSV GP4 and CD163-SRCR5 domain (Sus scrofa, UniProt Q2VL90); experiment: BiFC assay GP4/SRCR5; type: cell-based, porcine CD163; PRRSV VR2332; conditions: for Average GP4 (relative fluorescence intensity, SRCR5/GP4 BiFC): 5 μM, HEK293T, 24 h after transfection, relative to NC (DMSO), n=3
T2 construct: SRCR5 domain of porcine CD163 receptor was amplified from cDNA of pig cells; expressed in transfected cells; host or cells: HEK293T
Experimental: as §1

GFP-fusion CD163-SRCR5 = molecular target: T3, GFP-fusion CD163-SRCR5 (Sus scrofa, UniProt Q2VL90); experiment: Microscale thermophoresis (MST), GFP-SRCR5; type: binding, porcine; conditions: read-out: dissociation constant (Kd)
T3 construct: The purified GFP, GFP-fused SRCR2 or SRCR5 proteins were mixed with serially diluted compounds; made in house; host or cells: Escherichia coli BL21 (DE3)
Experimental: (§2) The recombinant pET28b-GFP-SRCR2/SRCR5 constructs were transformed into Escherichia coli strain BL21 (DE3) (New England Biolabs, MA, USA). The transformed clones were cultured at 37° C. in LB broth with […] kanamycin, induced by adding 1 mM isopropyl β-D-1-thiogalactopyranoside at optical density of 0.6-0.8, and then incubated at 37° C. for 3 h. For protein purification, cells were pelleted and resuspended in xTractor Buffer containing DNAse I, lysozyme solution, and Protease Inhibitor Cocktail (Takara Bio USA, Inc., CA). The suspension was sonicated and centrifuged. The supernatant was incubated with equilibrated TALON Metal Affinity Resin (Takara Bio USA, Inc., CA, USA) and then were eluted from resin with the elution buffer (pH 7.0, 150 mM imidazole, 50 mM NaH2PO4, and 300 mM NaCl). The eluted proteins were concentrated and with buffer exchanged to phosphate-buffered saline (pH 7.4) containing 0.05% Tween-20 (PBST) using Protein Concentrator PES, 10 kD MWCO (Pierce Biotechnology, PA, USA).
(§3) The purified GFP, GFP-fused SRCR2 or SRCR5 proteins were mixed with serially diluted compounds. The mixtures were loaded to capillaries and the affinity was measured by Monolith NT.115 (NanoTemper Technologies, Inc., CA, USA) at corresponding MST power with the blue channel.

GFP-fusion CD163-SRCR2 = molecular target: T4, GFP-fusion CD163-SRCR2 (Sus scrofa, UniProt Q2VL90); experiment: Microscale thermophoresis (MST), GFP-SRCR2; type: binding, porcine
T4 construct: The purified GFP, GFP-fused SRCR2 or SRCR5 proteins were mixed with serially diluted compounds; made in house; host or cells: Escherichia coli BL21 (DE3)
T4 sequence (Q2VL90 158-258 limits assumed): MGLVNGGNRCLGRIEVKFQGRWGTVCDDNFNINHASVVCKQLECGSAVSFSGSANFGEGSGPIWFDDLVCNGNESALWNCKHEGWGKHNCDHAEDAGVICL
Experimental: as §2, §3

GFP [3] = experiment: Microscale thermophoresis (MST), GFP; type: binding
Experimental: as §2, §3

[4] = molecular target: T5, GFP-fusion CD163-SRCR5 (GFP-fused SRCR5 domain of porcine CD163, recombinant, expressed in E. coli BL21 (DE3)) (Sus scrofa, UniProt Q2VL90); experiment: Microscale thermophoresis (MST) assay: direct association of compounds with purified GFP-fused CD163-SRCR5; type: binding; conditions: Monolith NT.115, blue channel, values represent Mean, N=3
T5 construct: GFP and GFP-SRCR2 as controls
Experimental: The amino acids within the LBP and loop 5-6 regions are underlined. […] B7 was placed in position 1 (Boxes) to show the potential disturbing of both conformations. […] B7 was placed in position 2 (Box) to show the potential disturbing of this conformation. […] Values represent Mean, N=3. […] Values represent Mean, N=3. […] Values represent Mean, N=3.
All chemicals (dissolved in 10 mM in DMSO) were designed and provided by Atomwise, Inc. (CA, USA). Compounds were further diluted in PBS (137 mM NaCl, 2.7 mM KCl, 8 mM Na2HPO4, and 2 mM KH2PO4, pH 7.4, Gibco, MA, USA) to 200 μM as the working solution. Pulmonary alveolar macrophages (PAMs) were harvested from healthy 4-6-month Landrace/Yorkshire pigs. Briefly, pig lungs were removed from euthanized pigs during necropsy and transferred on ice to the lab. 200 mL warm PBS with 200 U/mL penicillin and 200 μg/mL streptomycin was injected into trachea and reached major bronchi of both sides of the lungs. Lungs were then massaged and bronchoalveolar lavage fluid (BALF) was collected. PAMs were harvested from the BALF by centrifugation at 400×g for 15 min and washed in PBS twice. Fresh PAMs were counted and frozen in 90% FBS and 10% DMSO (Sigma-Aldrich, MO) in liquid nitrogen. PAMs were cultivated in RPMI-1640 (Gibco, MA) supplemented with 10% FBS, 2 mM Glutamax, 0.1 mM MEM Non-Essential Amino Acids, 1 mM sodium pyruvate, 100 U/mL penicillin and 100 μg/mL streptomycin, and 0.5 μg/mL Amphotericin B. SRCR5 domain of porcine CD163 receptor was amplified from cDNA of pig cells and inserted into pBiFC-VN155 (I152L). PRRSV GP2a and GP4 were amplified from reverse-transcribed genome of PRRSV VR2332 strain and cloned into pBiFC-VC155 vector as previously described (Huang et al., Virol J 17, 116, 2020). Porcine CD163 was cloned into pMXs vector (Cell Biolabs, CA, USA). For protein purification, […] were cloned into pET28b-GFP (Addgene, MA, USA).
The recombinant pET28b-GFP-SRCR2/SRCR5 constructs were transformed into Escherichia coli strain BL21 (DE3) (New England Biolabs, MA, USA). The transformed clones were cultured at 37° C. in LB broth with […] kanamycin, induced by adding 1 mM isopropyl β-D-1-thiogalactopyranoside at optical density of 0.6-0.8, and then incubated at 37° C. for 3 h. For protein purification, cells were pelleted and resuspended in xTractor Buffer containing DNAse I, lysozyme solution, and Protease Inhibitor Cocktail (Takara Bio USA, Inc., CA). The suspension was sonicated and centrifuged. […]
(§4) The purified GFP, GFP-fused SRCR2 or SRCR5 proteins were mixed with serially diluted compounds. The mixtures were loaded to capillaries and the affinity was measured by Monolith NT.115 (NanoTemper Technologies, Inc., CA, USA) at corresponding MST power with the blue channel. […]

GFP [5] = molecular target: T6, GFP; experiment: Microscale thermophoresis (MST) assay: association of B7 with purified GFP (control protein); type: binding; conditions: Monolith NT.115, blue channel, GFP alone (control), values represent Mean, N=3
T6 construct: made in house
Experimental: Values represent Mean, N=3.
as §2, §4

[6] = system: PRRSV strains NADC30, VR-2332 and Lelystad; experiment: PRRSV infection assay in PAMs, qRT-PCR for PRRSV; type: cell-based; conditions: qRT-PCR and titration in infected PAMs, compared with B7, B7-A4 or G7
Experimental: PAMs were cultivated in 12-well plates and infected with PRRSV NADC30 strain or Lelystad strain at MOI=0.05 for 1 h. Cells were then incubated with 15 μM B7 analogues for 24 h at 37° C. RNAs were extracted from the PAMs for quantitative reverse transcription-PCR (qRT-PCR) using RNeasy Mini Kits (Qiagen, MD, USA) and supernatants of cells were collected PRRSV titration assay.
RNAs isolated from infected PAMs were reversely transcribed to cDNA using iScript™ cDNA Synthesis Kit (Bio-Rad Laboratories, CA, USA). Specific qRT-PCR primers for ORF7 gene of PRRSV NADC30 and Lelystad strains, and for porcine GAPDH are shown in the Table S2 qRT-PCR reaction was conducted with SYBR Green Supermix (Bimake, TX, USA) using the ABI 7500 Fast Platform (Thermo Fisher Scientific, MA, USA). GAPDH served as the house keeping gene for normalization.

T2 sequence (Q2VL90 477-577): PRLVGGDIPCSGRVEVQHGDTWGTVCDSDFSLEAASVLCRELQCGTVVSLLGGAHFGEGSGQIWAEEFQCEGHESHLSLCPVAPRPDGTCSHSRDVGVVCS
T5 sequence (Q2VL90 477-577 limits assumed): as the sequence (Q2VL90 477-577) above
T1 sequence (Q2VL90 477-577): as above
T3 sequence (Q2VL90 477-577 limits assumed): as the sequence (Q2VL90 477-577) above

Compound: Cc1cc(F)ccc1S(=O)(=O)Nc1nc2ccccc2nc1Nc1cccc(S(=O)(=O)N2CCOCC2)c1 [B7]
- Average GP2a (relative fluorescence intensity, SRCR5/GP2a BiFC) ([1]; listed as H5, 1440 min, 5 µM): 0.15
- Average GP2a (relative fluorescence intensity, SRCR5/GP2a BiFC) ([1]; listed as PC, 1440 min, 5 µM): 0.02
- inhibition of the PPI between PRRSV GP2a and CD163 SRCR5 (in words) ([1]; positive control): significantly inhibited
- Average GP4 (relative fluorescence intensity, SRCR5/GP4 BiFC) ([2]; listed as H5, 1440 min, 5 µM): 0.06
- Average GP4 (relative fluorescence intensity, SRCR5/GP4 BiFC) ([2]; listed as PC, 1440 min, 5 µM): 0.24
- inhibition at 5 µM ([2]; HEK-293T, read-out: reduction of the YFP fluorescence signal compared with NC (inhibition in GP4/SRCR5 BiFC)): > 70%
- Kd (GFP-fusion CD163-SRCR5): 32 µM
- association with GFP-SRCR2 (in words) (GFP-fusion CD163-SRCR2): little or no association; also recorded: did not interact
- association with GFP (in words) (GFP [3]): little or no association

Compound: Cc1ccc(S(=O)(=O)Nc2nc3ccccc3nc2Nc2cccc(S(=O)(=O)N3CCCCC3)c2)cc1 [Compound B7-A4]
- Kd [4]: 22.9 µM

Compound: Cc1cc(F)ccc1S(=O)(=O)Nc1nc2ccccc2nc1Nc1cccc(S(=O)(=O)N2CCOCC2)c1 [Compound B7]
- Kd (GFP [5]): 2.11 mM

Compound: COc1ccc(NS(=O)(=O)c2cccc(Nc3nc4ccccc4nc3NS(=O)(=O)c3ccc(F)cc3C)c2)cc1 [Compound E3]
- Kd [4]: 330 µM

Compound: Cc1cccc(S(=O)(=O)Nc2nc3ccccc3nc2Nc2cccc(S(=O)(=O)N3CCCCC3)c2)c1 [Compound E10]
- Kd [4]: 38 µM

Compound: COc1ccccc1NS(=O)(=O)c1cccc(Nc2nc3ccccc3nc2NS(=O)(=O)c2ccc(F)cc2C)c1 [Compound F9]
- Kd [4]: 24.7 µM

Compound: Cc1cc(F)ccc1S(=O)(=O)Nc1nc2ccccc2nc1Nc1ccccc1 [G7]
- Average GP2a (relative fluorescence intensity, SRCR5/GP2a BiFC) [1]: 0.15
- Average GP4 (relative fluorescence intensity, SRCR5/GP4 BiFC) [2]: 0.71
- antiviral potency, SAR comparison (in words) [6]: much lower antiviral effect compared with B7; also recorded: obvious loss of the antiviral activity compared with B7

Compound: O=S(=O)(Nc1nc2ccccc2nc1Nc1ccc(Cl)c(S(=O)(=O)N2CCOCC2)c1)c1ccccc1 [G10]
- Average GP2a (relative fluorescence intensity, SRCR5/GP2a BiFC) [1]: 0.13
- Average GP4 (relative fluorescence intensity, SRCR5/GP4 BiFC) [2]: 0.80
- antiviral potency, SAR comparison (in words) [6]: mildly but significantly decreased
